Measured values reported in US20250205204A1, “Transcription Factor Brn2 Inhibitory Compounds for Use as Therapeutics” (The University of British Columbia, priority 2021, published 2025).

What was measured:
16D^CRPC cells = assay: Cell proliferation, 16D cells that do not express BRN2 (crystal violet); type: cell-based; conditions: result in words
Procedure: Step 3: Cell Proliferation
Plate 42DE^NZR (˜7000 cells per well) and 16D^CRPC (˜5000 cells per well) cells in 96 well plate with a volume of 100 μL per well. • 2. Next day 1 mL aliquots of media are combined with 3× the desired concentration of compounds. The aliquots are vortexed and 50 μL of each 3× concentration is added to the 100 μL of media in each well to give the ix desired concentration.
The following are the desired concentrations:
0, 10 nM, 100 nM, 500 nM, 1 μM, 2.5 μM, 5 μM, 10 μM, 15 μM, 20 μM, 30 μM. • 3. Approximately 72 hours later, 17 μL of 10% Glutaraldehyde is added to each well and plates are placed on a shaker for 20-30 minutes. • 4. Media is washed off the fixed cells by slow submersion in a container of water. Then the water is removed by tapping the plate upside down. • 5. 75 μL of Crystal Violet™ solution is added into the 96 well plates and placed on a shaker for ˜30 minutes. • 6. Media is washed off the fixed cells by repeated slow submersion in a container of water and the plates are allowed to dry over-night. • 7. Next day, 75 μL of Sorensen Solution is accurately pipetted into each well. The plates placed on a shaker for ˜30 minutes. • 8. Absorbance is measured in the plate at 590 nm. Compounds that Show Specificity Towards 42DE^NZR Cells Vs 16D^CRPC Cells Progress to Step 4.
In TABLES 1 and 2, in columns Met Stab % and T½, refers to compound's stability in MLM. There is a distinction in TABLES 1 and 2 difference between “Active” and “Specific” or “Specificity”. Some of the compounds were first tested to quantify inhibition of BRN2 transcriptional activity in a luciferase assay to determine BRN2 inhibition at 10 μM and 30 μM concentrations. […] Generally, compounds having low inhibitory activity were compounds with less than about ˜30% or activation at either concentration (i.e. 10 μM or 30 μM). Furthermore, some compounds that lacked specificity could also show off-target effects.

42D^ENZR cells = assay: Cell proliferation, BRN2 expressing 42D cells (crystal violet); type: cell-based; conditions: about 72 hours
Summary of the method: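 42D^ENZR (~7000/well) and 16D^CRPC (~5000/well) cells plated, compound added next day from 3× media stocks. After ~72 hours, cells fixed with glutaraldehyde, stained with crystal violet, dye eluted in Sorensen solution; absorbance read at 590 nm.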

## O=C1/C(=N\Nc2nc3ccccc3s2)Cc2ccccc21 [7-62, (Z)-2-(2-(benzo[d]thiazol-2-yl)hydrazineylidene)-2,3-dihydro-1H-inden-1-one]
16D^CRPC cells
  effect on 16D: no effect on 16D
42D^ENZR cells; 42D (express BRN2) versus 16D (no BRN2) cells, result in words
  Growth Specificity: Specific to 42D
42D^ENZR cells; 42D cells, proliferation, read-out: 42D IC50
  IC50: 1000 nM
